Reference: patent publication US7491832B2, “Sulfonate compound and fluorescent probe using the same” (Osaka Industrial Promotion Organization, priority 2003, dated 2009)

Columns and labels:
[1] = tested on: Chlamydomonas reinhardtii cells; assay: fluorescence response of probe-loaded alga cells stimulated with Cu2+, PQ or MB under light or in the dark; assay type: cell-based; details: FIG. 1; for fluorescence increment (in words) / selectivity for Cu2+ plus light conditions over PQ and MB (in words) / fluorescence response of loaded cells (in words): probe 25 μM; for fluorescence increment (in words): Cu2+ and irradiation with light; for fluorescence response of loaded cells (in words): incubation under irradiation with light in the presence of Cu2+, 60 minutes
Text: Photic stimulation can cause oxidative stress in green algae. Stimulation with Cu^2+ causes intracellular generation of various ROS such as superoxides, hydrogen peroxide, and hydroxyl radicals. Furthermore, when alga cells are activated specifically by paraquat (PQ) or methylene blue (MB), oxidative stress can be caused by the generation of a superoxide or ^1O2. […] In order to load alga cells with the compounds 1a, 1b, and 1c, the derivatives 2a, 2b, and 2c (Scheme 3) as acetylated forms of the compounds 1a, 1b, and 1c were used.
More specifically, first, the compounds 2a, 2b, and 2c respectively were dissolved in DMSO, thus obtaining 10 mM stock solutions of the respective compounds. Next, Chlamydomonas reinhardtii (IAM C-238) cultured by an ordinary method was inoculated into 3 ml of an MBM culture solution. Thereafter, the MBM culture solution was loaded with 7.5 μl of each of the stock solutions of the compounds 2a, 2b, and 2c in the dark at 25° C. for 30 minutes. Thus, probe-loaded cell suspensions were prepared. Furthermore, a 96-well tissue culture plate was provided, and 50 μl of a MBM solution containing the indicated concentration of CuCl2, PQ, or […] was added to the plate. The probe-loaded cell suspension (50 μl) was inoculated to the plate and then incubated under irradiation with light or in the dark. After 60 minutes, fluorescence in the cells was measured using a fluorescence measuring device (trade name “CytoFluor II multiwell fluorescence plate reader”, PerSeptive Biosystems, USA). For the measurement, an excitation filter was set at 485±20 nm and an emission filter was set at 530±25 nm.
FIG. 1 contains graphs showing the correlation between a concentration and a fluorescence increment when the fluorescence response was measured by loading Chlamydomonas reinhardtii cells with the compound 2a, 2b, or 2c (25 μM) or DCFH-DA (50 μM) in the dark at 25° C. for 30 minutes and incubating them in 96-well microplates under irradiation with light or in the dark in the presence of Cu^2+, PQ, or MB for 60 minutes. In FIG. 1, an empty circle indicates the result obtained when the incubation was carried out under irradiation with light and a solid circle indicates the result obtained when the incubation was carried out in the dark.

[2] = microplate assay of the acetylated forms as hydrogen peroxide-detecting probe (esterase requirement); details: microplate assay similar to that of compounds 1
[3] = 96-well microplate assay, fluorescence response to H2O2; details: for response to H2O2 (in words): 96-well microplate assay; for detection limit for H2O2: 150 μl probe solution, 25° C., 60 minutes, RSD n=8; for detection limit for H2O2 / Fluorescence Intensity (RFU), H2O2: HEPES pH 7.4; for Fluorescence Intensity (RFU), H2O2: value minus intensity in the absence of H2O2, probe 1a 25 μM, 1b and 1c 5 μM; for slope of the linear calibration curve: H2O2 calibration, detection limit to 92.3 nmol; for upper end of the linear calibration range: linear from the detection limit upward
Experimental: In this assay, a DMSO solution of the compound 1a (10 mM), a DMSO solution of the compound 1b (2 mM), and a DMSO solution of the compound 1c (2 mM) were provided first and then these solutions were diluted 400-fold with a HEPES buffer solution (pH 7.4, 10 mM). Thus, probe solutions of the respective compounds were prepared. In the respective probe solutions, the concentration of the compound 1a was 25 μM, the concentration of the compound 1b was 5 μM, and the concentration of the compound 1c was 5 μM. Then, 150 μl of each of the probe solutions was allowed to react with H2O2 water (0.92 mM, 10 μl) at 25° C. for 60 minutes. The detection limits of the compounds 1a, 1b, and 1c were 46.0 (RSD, n=8; 1.2%), 23.1 (0.5%), and 4.6 (1.0%) pmol, respectively, which are all acceptable for cellular level detection. With regard to each of the compounds 1a, 1b, and 1c, a linear calibration curve with a correlation coefficient of at least 0.999 was obtained when the detected value was in the range from the detection limit to 92.3 nmol.
(§1) The fluorescence response to H2O2 achieved by each of the thus-obtained compounds 1a, 1b, and 1c was compared with that to HO. (a hydroxyl radical) and that to O2^−. (a superoxide). As a source of HO., the Fenton reaction between H2O2 (1 mM, 10 μl) and Fe^2+ (5 mM, 10 μl) was used. On the other hand, O2^−. was generated by causing an enzyme reaction between hypoxanthine (HPX) (1 mM, 10 μl) and xanthine oxidase (XO) (0.26 U/ml, 10 μl).
(§2) In Table 1, fluorescence responses observed after reacting the compounds 1a, 1b, and 1c with H2O2, HO., or O2^−. were compared with each other. Numbers in Table 1 represent the fluorescence intensity (RFU). Note here that the RFU is a value obtained by subtracting a fluorescence intensity obtained in the absence of H2O2 or HPX from the measured value.

[4] = microplate assay, fluorescence response to HO. from the Fenton reaction (H2O2 + Fe2+); details: for Fluorescence Intensity (RFU), H2O2 + Fe^2+: H2O2 (1 mM, 10 μl) + Fe2+ (5 mM, 10 μl) as HO. source, blank subtracted
Experimental: as §1, §2

[5] = microplate assay, fluorescence response in the HPX-XO system (O2-. source), with or without catalase or SOD; details: for Fluorescence Intensity (RFU), HPX + XO + catalase: HPX + XO with catalase (5000 U/ml, 10 μl); for Fluorescence Intensity (RFU), HPX + XO + catalase / Fluorescence Intensity (RFU), HPX + XO + SOD: blank subtracted; for Fluorescence Intensity (RFU), HPX + XO + SOD: HPX + XO with superoxide dismutase (10 μl); for fluorescence response in the HPX-XO system on addition of catalase (in words): catalase 5000 U/ml; for fluorescence response in the HPX-XO system on addition of catalase (in words) / fluorescence response in the HPX-XO system in the presence of SOD (in words): 10 μl; for Fluorescence Intensity (RFU), HPX + XO: hypoxanthine (1 mM, 10 μl) + xanthine oxidase (0.26 U/ml, 10 μl), blank without HPX subtracted; for fluorescence response in the HPX-XO system in the presence of SOD (in words): superoxide dismutase
Experimental: as §1, §2

SMILES | fluorescence increment (in words) [1] | selectivity for Cu2+ plus light conditions over PQ and MB (in words) [1] | fluorescence response of loaded cells (in words) [1] | requirement of esterase to serve as hydrogen peroxide-detecting probe (in words) [2] | response to H2O2 (in words) [3] | detection limit for H2O2 [3] | Fluorescence Intensity (RFU), H2O2 [3] | slope of the linear calibration curve [3] | upper end of the linear calibration range [3] | response to HO. compared with that to H2O2 (in words) [4] | Fluorescence Intensity (RFU), H2O2 + Fe^2+ [4] | Fluorescence Intensity (RFU), HPX + XO + catalase [5] | Fluorescence Intensity (RFU), HPX + XO + SOD [5] | fluorescence response in the HPX-XO system on addition of catalase (in words) [5] | Fluorescence Intensity (RFU), HPX + XO [5] | fluorescence response in the HPX-XO system in the presence of SOD (in words) [5] | detection of ROS on Cu2+ stimulation (in words) ([1]; DCFH-DA 50 μM) | detection of oxidative stress caused by PQ and MB (in words) ([1]; DCFH-DA 50 μM)
CC(=O)Oc1cc2c(cc1F)C1(OC(=O)c3ccccc31)c1cc(F)c(OS(=O)(=O)c3c(F)c(F)c(F)c(F)c3F)cc1O2 (stereo not drawn) [Compound 2c] | great fluorescence increments | high selectivity | exhibited fluorescence response in a stimulation concentration-dependent manner | esterase was necessary |  |  |  |  |  |  |  |  |  |  |  |  |  | 
O=C(O)c1ccccc1-c1c2ccc(=O)cc-2oc2cc(OS(=O)(=O)c3c(F)c(F)c(F)c(F)c3F)ccc12 [Compound 1a] |  |  |  |  | H2O2 concentration-dependent response | 46.0 pmol | 1150 RFU | 172 au/nmol | 92.3 nmol | much smaller than those to H2O2 | 28 RFU | −49 RFU | 899 RFU | eliminated completely | 566 RFU | maintained or increased |  | 
CC(=O)Oc1cc2c(cc1Cl)C(c1ccccc1C(=O)O)c1cc(Cl)c(OC(C)=O)cc1O2 [DCFH-DA, reference compound] |  |  |  |  |  |  |  |  |  |  |  |  |  |  |  |  | detected ROS generated by the Cu^2+ stimulation | detected the oxidative stress caused by PQ and MB effectively
O=C(O)c1ccccc1-c1c2cc(F)c(=O)cc-2oc2cc(OS(=O)(=O)c3c(F)c(F)c(F)c(F)c3F)c(F)cc12 [Compound 1c] |  |  |  |  | H2O2 concentration-dependent response | 4.6 pmol | 4375 RFU | 591 au/nmol | 92.3 nmol | much smaller than those to H2O2 | 184 RFU | −44 RFU | 3340 RFU | eliminated completely | 3580 RFU | maintained or increased |  | 
CC(=O)Oc1cc2c(cc1Cl)C1(OC(=O)c3ccccc31)c1cc(Cl)c(OS(=O)(=O)c3c(F)c(F)c(F)c(F)c3F)cc1O2 (stereo not drawn) [Compound 2b] |  |  | exhibited fluorescence response in a stimulation concentration-dependent manner | esterase was necessary |  |  |  |  |  |  |  |  |  |  |  |  |  | 
O=C(O)c1ccccc1-c1c2cc(Cl)c(=O)cc-2oc2cc(OS(=O)(=O)c3c(F)c(F)c(F)c(F)c3F)c(Cl)cc12 [Compound 1b] |  |  |  |  | H2O2 concentration-dependent response | 23.1 pmol | 2193 RFU | 215 au/nmol | 92.3 nmol | much smaller than those to H2O2 | 195 RFU | −51 RFU | 1733 RFU | eliminated completely | 1733 RFU | maintained or increased |  | 
CC(=O)Oc1ccc2c(c1)Oc1cc(OS(=O)(=O)c3c(F)c(F)c(F)c(F)c3F)ccc1C21OC(=O)c2ccccc21 (stereo not drawn) [Compound 2a] | great fluorescence increments | high selectivity | exhibited fluorescence response in a stimulation concentration-dependent manner | esterase was necessary |  |  |  |  |  |  |  |  |  |  |  |  |  | 
